{"source": "ChEMBL document CHEMBL1201862", "about": "“PubChem BioAssay data set” (2004)", "key": {"[1]": {"assay": "Late stage results for the probe development effort to identify inhibitors of Plasmodium falciparum gametocytes: Luminescence-based cell-based high throughput dose response assay to identify inhibitors of viability of late stage Plasmodium falciparum gametocytes.", "assay_type": "functional"}, "[2]": {"assay": "Vero cell cytotoxicity, dose response, cytotoxicity control for Vif-APOBEC3G degradation inhibitor project, Vero cells (AID 1117358)", "assay_type": "functional", "settings": "Human immunodeficiency virus 1, Vero"}, "[3]": {"assay": "cells", "settings": "A549"}, "[4]": {"assay": "Luminescence Cell-Based Dose Retest to Confirm Inhibitors of Cancer Stem Cells. [Related pubchem assays (depositor defined):AID2717, AID2721]", "assay_type": "functional", "settings": "Homo sapiens"}, "[5]": {"assay": "HepG2 cell cytotoxicity, dose response, cytotoxicity control, ATP luminescence, cherry-pick, set 6 (AID 1053125)", "assay_type": "functional, cell-based"}, "[6]": {"target": "Heat shock protein HSP 90-alpha (Homo sapiens, UniProt P07900)", "assay_type": "functional, organism-based"}, "[7]": {"assay": "cells", "settings": "HEK293"}, "[8]": {"assay": "cells", "assay_type": "functional, cell-based", "settings": "INS-1E"}, "[9]": {"assay": "Dose-response inhibition of insulin secretion in a rat insulinoma line at 5 mM glucose (AID 1117331)", "assay_type": "functional, cell-based", "settings": "INS-1E"}, "[10]": {"target": "T1, Low molecular weight phosphotyrosine protein phosphatase (Homo sapiens, UniProt P24666)", "T1 sequence (P24666 whole entry)": "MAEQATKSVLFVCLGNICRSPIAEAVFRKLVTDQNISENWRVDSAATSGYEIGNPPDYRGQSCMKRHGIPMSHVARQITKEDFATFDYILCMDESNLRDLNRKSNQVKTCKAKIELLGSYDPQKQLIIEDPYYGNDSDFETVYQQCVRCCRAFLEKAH", "assay": "LMPTP phosphatase inhibitors, dose response, biochemical, OMFP substrate, fluorescence intensity, set 2 (AID 743307)", "assay_type": "functional"}, "[11]": {"target": "T1, Low molecular weight phosphotyrosine protein phosphatase", "assay": "LMPTP phosphatase inhibitors, colorimetric pNPP readout, dose response, orthogonal assay, biochemical, absorbance, pNPP substrate, LMPTP-A isoform, set 2 (AID 743308)", "assay_type": "functional"}, "[12]": {"target": "T2, Caspase-6 (Homo sapiens, UniProt P55212)", "T2 sequence (P55212 whole entry)": "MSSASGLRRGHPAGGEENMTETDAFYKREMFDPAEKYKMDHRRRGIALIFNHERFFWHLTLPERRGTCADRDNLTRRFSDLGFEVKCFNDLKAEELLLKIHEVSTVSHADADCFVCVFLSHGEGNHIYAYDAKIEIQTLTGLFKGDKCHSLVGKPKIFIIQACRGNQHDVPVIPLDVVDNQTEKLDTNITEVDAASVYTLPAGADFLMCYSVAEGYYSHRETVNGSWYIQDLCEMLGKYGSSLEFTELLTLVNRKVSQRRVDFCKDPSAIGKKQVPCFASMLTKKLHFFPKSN", "assay": "human caspase-6 inhibitors, dose response, biochemical, VEID-R110 fluorescence, cherry-pick (AID 720632)"}, "[13]": {"target": "T3, Carboxy-terminal domain RNA polymerase II polypeptide A small phosphatase 1 (Homo sapiens, UniProt Q9GZU7)", "T3 sequence (Q9GZU7 whole entry)": "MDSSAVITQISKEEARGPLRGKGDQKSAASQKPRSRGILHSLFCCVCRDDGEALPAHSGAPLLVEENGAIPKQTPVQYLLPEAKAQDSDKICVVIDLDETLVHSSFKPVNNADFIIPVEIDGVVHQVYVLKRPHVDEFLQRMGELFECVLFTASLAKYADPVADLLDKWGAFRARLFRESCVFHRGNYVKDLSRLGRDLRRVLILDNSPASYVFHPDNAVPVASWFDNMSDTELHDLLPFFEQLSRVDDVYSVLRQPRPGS", "assay": "inhibitors of CTDSP1, concentration-response testing, biochemical assay, absorbance-based, actives from ultra-high-throughput screening (AID 540297)", "assay_type": "functional"}, "[14]": {"target": "RNA-editing ligase 1, mitochondrial (Trypanosoma brucei brucei, UniProt P86926)", "sequence (P86926 whole entry)": "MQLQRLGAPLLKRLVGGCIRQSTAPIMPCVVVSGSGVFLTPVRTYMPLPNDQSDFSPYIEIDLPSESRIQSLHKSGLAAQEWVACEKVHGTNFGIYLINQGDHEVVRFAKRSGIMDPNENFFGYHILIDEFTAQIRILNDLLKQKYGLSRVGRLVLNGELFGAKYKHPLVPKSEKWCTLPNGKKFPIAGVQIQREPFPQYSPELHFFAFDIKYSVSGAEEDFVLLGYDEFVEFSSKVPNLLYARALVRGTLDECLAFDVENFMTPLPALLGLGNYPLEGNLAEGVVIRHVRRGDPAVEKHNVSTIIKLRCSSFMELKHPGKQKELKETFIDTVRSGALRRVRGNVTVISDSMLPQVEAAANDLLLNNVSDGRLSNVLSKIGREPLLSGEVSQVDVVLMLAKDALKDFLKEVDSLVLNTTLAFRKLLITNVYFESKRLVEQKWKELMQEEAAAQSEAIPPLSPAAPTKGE", "assay": "TbREL1 ligase inhibitors, dose response, biochemical, fluorescence, Trypanosoma brucei (AID 1117295)", "assay_type": "functional"}}, "note": "Where a name gives a salt, the structure may show the parent alone. The source made the active and inactive calls."}
{"smiles": "O=C(Nc1nccs1)c1cn(-c2ccccc2)nc1-c1ccc(Cl)cc1", "values": [{"measurement": "IC50", "setting": "[1]", "result": "> 37.2 µM (inactive)"}]}
{"smiles": "Cc1onc(-c2ccccc2Cl)c1C(=O)N1CCN(c2cccc(Cl)c2)CC1", "values": [{"measurement": "CC50", "setting": "[2]", "result": "> 40 µM (active)"}]}
{"smiles": "CCCCCCc1cc2cc(S(=O)(=O)c3ccc(Cl)cc3)c(=O)oc2cc1O", "values": [{"measurement": "AC50", "setting": "[3]", "result": "35.6 µM (active)"}, {"measurement": "AC50", "setting": "[4]", "result": "0.797 µM (active)"}, {"measurement": "AC50", "setting": "[5]", "result": "41.4 µM (active)"}, {"measurement": "AC50", "setting": "[6]", "result": "0.476 µM (active)"}, {"measurement": "AC50", "setting": "[7]", "result": "> 52 µM (inactive)"}]}
{"smiles": "CN(C)CC[C@@H](c1ccc(Br)cc1)c1ccccn1", "note": "[DEXBROMPHENIRAMINE MALEATE]", "values": [{"measurement": "IC50", "setting": "[8]", "result": "6.37 µM (inactive)"}, {"measurement": "IC50", "setting": "[9]", "result": "3.76 µM (active)"}]}
{"smiles": "CN(C)CCNc1cc(-c2ccccc2)nc2ccccc12", "values": [{"measurement": "IC50", "setting": "[10]", "result": "5.72 µM (active)"}, {"measurement": "IC50", "setting": "[11]", "result": "12 µM (active)"}]}
{"smiles": "O=C(N/N=C/c1ccc(OC(=O)c2ccccc2Cl)cc1)c1cc(O)cc(O)c1", "values": [{"measurement": "AC50", "setting": "[12]", "result": "1.11 µM (active)"}, {"measurement": "IC50", "setting": "[13]", "result": "1.4 µM (active)"}, {"measurement": "IC50", "setting": "[14]", "result": "41 µM (inactive)"}]}
